Key:
[1] = clinical study; cited from earlier work
[2] = PBPK model virtual trials matched to the observed studies (model verification, nonobese vs obese); design: species or system human
Text: (§1) We took several steps to analyse the impact of obesity on the ARVs exposure and response. First, we implemented our in-house PBPK model with our recently published virtual White obese population to simulate the pharmacokinetics of ARVs in nonobese and obese individuals. Next, we verified the simulations against the TDM data collected during the follow-up visits of the SHCS (multiple drug levels per individual were allowed [more information on the SHCS in the homonymous section in the Supplementary Material]). We then applied the verified model to extrapolate the pharmacokinetics across different obesity classes. Finally, the clinical relevance of obesity-related changes on drug response was evaluated by analyzing HIV viral load and the corresponding TDM values in obese and nonobese individuals in the SHCS.
(§2) All ARV drug models, except for doravirine (Supplementary Table 1), were previously developed and verified to predict the pharmacokinetics in healthy and elderly PWH [6, 12]. […] The TDM data were excluded if the participant’s age was younger than 20 or older than 50 years to avoid the age-related confounding effect on the pharmacokinetics, if a nonstandard ARV dosage was used, and if concurrent medications with inhibitory or inducing effects were used. The pharmacokinetic parameters including peak plasma concentration (Cmax), area under the curve to time t (AUCt), and trough concentration (Cτ) were derived from the TDM data using noncompartmental analysis.
(§3) A literature search was also performed to identify pharmacokinetic studies with ARVs conducted in obese and nonobese individuals. Data on the study design, characteristics of the participants, and pharmacokinetic results were collected. […] Available concentration-time profiles were digitalized using GetData Graph Digitizer V.2.26. The virtual trials were conducted by matching the participants’ demographics (eg, age, proportion of females, and BMI) and the ARV dosing regimen (Supplementary Table 2). The models were considered verified if the simulations were within 2-fold of observed data.

CYP3A4 = experiment: Doravirine PBPK model parameter: CYP3A4 intrinsic clearance; type: in vitro ADME; conditions: Retrograde calculation
Text: Supplementary Table 1. Doravirine PBPK model parameters.

[3] = design: method as in earlier work; conditions: PBPK model parameter, supplement reference list; cited from earlier work
[4] = Observed pharmacokinetics of antiretrovirals in nonobese and obese individuals (SHCS therapeutic drug monitoring data and literature studies, noncompartmental analysis)
Text: as §1, §2, §3
The Swiss HIV Cohort Study (SHCS) is an ongoing, nationwide, multicenter, clinic-based prospective cohort study in Switzerland with continuous enrollment and follow-up (twice a year) of people with HIV (PWH). Socio-demographic, clinical and laboratory data are recorded in detail. […] The collection of therapeutic drug monitoring (TDM) data in the SHCS database was initiated in 1998. All available TDM data for each evaluated antiretroviral drug were extracted from the SHCS database representing 6210 and 575 data points for the verification of the simulations in non-obese and obese individuals, respectively.

[5] = nonobese, standard oral dose at steady state; GM (mean for etravirine, emtricitabine, tenofovir); literature studies only, ref Supplementary Table 2 [9-16, 21-24]; cited from earlier work
[6] = design: method as in earlier work; conditions: PBPK model parameter, supplement reference list; cited from earlier work; remark: listed apart in the source
HIV viral load = experiment: Drug response in obese versus nonobese participants in the SHCS (concentration below efficacy threshold and viral load >50 copies/mL)
Method: The viral load was analyzed in conjunction with the TDM data to evaluate whether a decrease in ARV exposure in obese PWH is associated with a viral load of more than 50 copies/mL (the viral load measured on the date of the TDM assessment was considered for this evaluation).

SMILES: Cn1c(Cn2ccc(C(F)(F)F)c(Oc3cc(Cl)cc(C#N)c3)c2=O)n[nH]c1=O [Doravirine, doravirine]
- Increase in Cτ in obese compared with nonobese PWH [1]: 22%
- Cτ, Ratio (Predicted Ratio Obese/Nonobese)/(Observed Ratio Obese/Nonobese) [2]: 0.79
- AUCt, Ratio Predicted/Observed, Nonobese ([2]; nonobese individuals): 1.00
- Cmax, Ratio Predicted/Observed, Nonobese ([2]; nonobese individuals): 1.10
- Cτ, Ratio Predicted/Observed, Nonobese ([2]; nonobese individuals): 0.86
- t1/2, Ratio Predicted/Observed, Nonobese ([2]; nonobese individuals): 1.03
- Cτ, Ratio Predicted/Observed, Obese ([2]; obese individuals): 0.68
- Predictions within x-fold of observed clinical data ([2]; pharmacokinetic parameters in obese and nonobese individuals, 1.25-fold 'for the most part'): ≤ 1.25 fold
- CYP3A4 CLint (intrinsic clearance) (CYP3A4): 0.032 µl/min/pmol enzyme
- Apparent permeability [3]: 25 10^-6 cm/sec
- BP (blood-plasma-ratio) [3]: 1.0
- CLrenal (renal clearance) [3]: 0.566 L/h
- fup (fraction unbound in plasma) [3]: 0.24
- Cτ, observed, obese individuals ([4]; obese (BMI >=30, range per drug), standard oral dose at steady state, GM (mean for etravirine), SHCS TDM data with or without literature data): 513 ng/mL
- Cτ, Ratio Obese/Nonobese, Observed ([4]; observed data): 1.27
- AUCt, observed, nonobese individuals [5]: 17 498 ng*h/mL
- Cmax, observed, nonobese individuals [5]: 1226 ng/mL
- Cτ, observed, nonobese individuals [5]: 404 ng/mL
- t1/2, observed, nonobese individuals [5]: 13.5 h
- drug type [6]: Monoprotic base
- log P (octanol-water partition coefficient) [6]: 3.0
- pKa1 [6]: 9.5
- % PWH with concentration below efficacy threshold (HIV viral load; BMI 18.5–30 kg/m^2): 0%
- % PWH with virological failure amongst those with concentration below efficacy threshold (HIV viral load; BMI 18.5–30 kg/m^2, viral load above 50 copies/mL): 0%
- % PWH with concentration below efficacy threshold (HIV viral load; BMI >30 kg/m^2): 25%
- % PWH with virological failure amongst those with concentration below efficacy threshold (HIV viral load; BMI >30 kg/m^2, viral load above 50 copies/mL): 0%
